Patent US20050107353A1, “Methods of treating lower urinary tract disorders using losigamone” (Dynogen Pharmaceuticals, Inc., priority 2003, published 2005)
pIC50: −log10 of the molar value. Entries after “also recorded” stand apart in the source; their conditions may differ. Where a name gives a salt, the structure may show the parent alone.

Columns and labels:
[1] = system: acetic acid-induced reduction of bladder capacity; test: Dilute acetic acid model: bladder capacity by filling cystometry during continuous intravesical acetic acid irritation; assay type: in vivo, rat; conditions: for post-test: reversal of bladder capacity reduction: rats; for effect on bladder capacity (reversal of acetic acid-induced reduction): increasing doses, rats during continuous irritation
Text: The objective of the current study was to determine the effect of TTX-R sodium channel modulators or use dependent sodium channel modulators on the ability to reverse the reduction in bladder capacity seen following continuous infusion of dilute acetic acid, a commonly used model of lower urinary tract disorders including overactive bladder.
Animal Preparation: Female rats (250-275 g BW) were anesthetized with urethane (1.2 g/kg) and a saline-filled catheter (PE-50) was inserted into either the jugular vein for intravenous (i.v.; saline vehicle) or the proximal duodenum for intraduodenal (i.d.; distilled water or 10% Tween 80 in saline as vehicle) drug administration. Via a midline lower abdominal incision, a flared-tipped PE 50 catheter was inserted into the bladder dome for bladder filling and pressure recording and secured by ligation. The abdominal cavity was moistened with saline and closed by covering with a thin plastic sheet in order to maintain access to the bladder for emptying purposes. Fine silver or stainless steel wire electrodes were inserted into the external urethral sphincter (EUS) percutaneously for electromyography (EMG).
Experimental Design: Saline was continuously infused at a rate of 0.055 ml/min via the bladder filling catheter for ≧60 minutes to obtain a baseline of lower urinary tract activity (continuous cystometry; CMG). Following the control period, a 0.25% acetic acid solution in saline was infused into the bladder at the same flow rate to induce bladder irritation. Following 30 minutes of AA infusion, 3 vehicle injections were made at 20 minute intervals to determine vehicle effects, if any. Subsequently, increasing doses (2-5) of Na^+ channel blocking compound were administered intravenously or intraduodenaly at half-log order increments at 30 or 60 minute intervals in order to construct a cumulative dose-response relationship. At the end of the control saline cystometry period, the third vehicle, and 20-50 minutes following each subsequent treatment, the infusion pump was stopped, the bladder was emptied by fluid withdrawal via the infusion catheter and a single filling cystometrogram was performed at the same flow rate in order to determine changes in bladder capacity caused by the irritation protocol and subsequent intravenous or intraduodenal drug administration.
Data were analyzed by non-parametric ANOVA for repeated measures (Friedman Test) with Dunn's Multiple Comparison test. All comparisons were made from the last vehicle measurement (AA/Veh 3) or the lowest dose of drug. P<0.050 was considered significant.

[2] = target: T1, TTX-R sodium currents in bladder afferent neurons (Rattus norvegicus, UniProt Q62968); test: Bladder sensory neuron sodium channel current model: whole cell patch-clamp of TTX-R sodium currents; assay type: cell-based; conditions: for concentration-response effect on TTX-R sodium current amplitude: bath application, cumulative concentrations, bladder afferent neurons; for effect on inward TTX-R sodium current: 100 μM bath application, labeled bladder afferent neuron
T1 construct: Whole cell patch-clamp recordings were obtained from dye-labeled DRG neurons; endogenous in cells; host or cells: primary dissociated L6/S1 dorsal root ganglion neurons of Sprague-Dawley rats, dye-labelled bladder afferents
T1 sequence (Q62968 whole entry): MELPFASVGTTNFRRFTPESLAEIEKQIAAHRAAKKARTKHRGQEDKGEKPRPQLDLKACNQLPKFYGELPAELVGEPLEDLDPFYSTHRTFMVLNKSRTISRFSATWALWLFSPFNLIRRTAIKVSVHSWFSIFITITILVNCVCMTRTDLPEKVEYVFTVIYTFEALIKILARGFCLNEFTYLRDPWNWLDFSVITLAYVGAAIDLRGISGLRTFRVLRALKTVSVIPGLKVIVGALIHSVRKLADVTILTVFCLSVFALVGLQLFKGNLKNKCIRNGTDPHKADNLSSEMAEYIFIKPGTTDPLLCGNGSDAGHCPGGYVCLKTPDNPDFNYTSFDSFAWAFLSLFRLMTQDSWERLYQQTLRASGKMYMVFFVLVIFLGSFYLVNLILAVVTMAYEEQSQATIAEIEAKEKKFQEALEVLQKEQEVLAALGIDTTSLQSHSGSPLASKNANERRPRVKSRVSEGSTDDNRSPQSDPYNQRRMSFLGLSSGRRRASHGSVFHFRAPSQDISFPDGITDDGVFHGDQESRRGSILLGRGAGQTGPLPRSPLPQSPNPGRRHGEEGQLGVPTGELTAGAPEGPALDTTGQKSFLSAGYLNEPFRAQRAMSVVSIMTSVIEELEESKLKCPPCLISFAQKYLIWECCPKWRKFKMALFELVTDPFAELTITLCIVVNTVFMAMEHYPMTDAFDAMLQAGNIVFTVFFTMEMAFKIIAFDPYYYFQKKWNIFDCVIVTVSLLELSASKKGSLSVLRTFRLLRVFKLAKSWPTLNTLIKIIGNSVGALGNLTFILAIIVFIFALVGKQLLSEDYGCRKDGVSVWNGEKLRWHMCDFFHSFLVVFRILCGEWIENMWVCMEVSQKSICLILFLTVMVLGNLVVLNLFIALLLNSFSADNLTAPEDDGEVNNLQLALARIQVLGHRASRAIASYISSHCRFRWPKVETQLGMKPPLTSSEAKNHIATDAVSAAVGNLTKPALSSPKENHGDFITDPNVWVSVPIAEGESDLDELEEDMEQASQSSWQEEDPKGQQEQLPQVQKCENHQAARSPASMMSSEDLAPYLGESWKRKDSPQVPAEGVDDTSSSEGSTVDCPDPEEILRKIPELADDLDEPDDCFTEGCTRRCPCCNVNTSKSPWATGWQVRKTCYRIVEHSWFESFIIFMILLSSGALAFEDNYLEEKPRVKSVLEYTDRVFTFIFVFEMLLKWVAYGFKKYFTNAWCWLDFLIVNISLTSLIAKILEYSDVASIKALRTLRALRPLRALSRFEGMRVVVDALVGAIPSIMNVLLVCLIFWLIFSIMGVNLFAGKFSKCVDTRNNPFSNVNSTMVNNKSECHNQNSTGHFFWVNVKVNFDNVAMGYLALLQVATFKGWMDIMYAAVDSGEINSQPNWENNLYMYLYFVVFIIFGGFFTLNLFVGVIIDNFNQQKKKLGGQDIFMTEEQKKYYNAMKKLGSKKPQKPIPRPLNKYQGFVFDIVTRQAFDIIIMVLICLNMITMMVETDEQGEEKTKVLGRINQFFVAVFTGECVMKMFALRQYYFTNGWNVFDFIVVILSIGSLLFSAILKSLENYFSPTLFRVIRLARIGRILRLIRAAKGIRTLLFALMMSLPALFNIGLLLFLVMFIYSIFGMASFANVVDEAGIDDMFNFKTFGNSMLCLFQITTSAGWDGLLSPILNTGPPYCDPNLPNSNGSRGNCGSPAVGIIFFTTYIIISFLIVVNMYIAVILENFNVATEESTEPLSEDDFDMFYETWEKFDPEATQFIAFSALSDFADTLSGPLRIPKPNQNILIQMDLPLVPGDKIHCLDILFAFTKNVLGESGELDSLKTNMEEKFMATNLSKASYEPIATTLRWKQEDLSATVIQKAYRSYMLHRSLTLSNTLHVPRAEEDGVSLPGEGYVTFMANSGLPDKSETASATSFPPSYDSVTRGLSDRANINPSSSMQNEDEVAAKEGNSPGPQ
Experimental: Labeling of bladder afferent neurons: Adult female Sprague-Dawley rats (150-300 g) were deeply anesthetized with pentobarbital anesthesia and placed on isoflurane maintenance anesthesia. A ventral midline incision was made through the abdominal skin and musculature, exposing the urinary bladder. Five injections of the fluorescent dye Di-I (5 μl each of 25 mg/ml Di-I in DMSO) or Fast Blue (4% w/v) were made into the bladder smooth muscle wall to label primary afferent fibers innervating the bladder. The area was rinsed with sterile saline to eliminate nonspecific spread of dye, and the incision was closed. Rats recovered for 5-12 days to allow for transport of fluorescent dye from distal terminals to the cell somata of dorsal root ganglion (DRG) neurons. Labeled neurons were identified in vitro using fluorescence optics.
Neuronal cultures: Di-I injected rats were euthanized with pentobarbital anesthesia. Lumbar (L6) and sacral (S1) DRG were dissected from the vertebral column and placed in Dulbecco's modified Eagles medium (DMEM) containing 0.3% collagenase B for 60 min at 37° C. The cell solution was exchanged for a 0.25% trypsin in calcium/magnesium-free Dulbecco's phosphate-buffered saline solution, and further digested for 30 min at 37° C. Following a wash in fresh DMEM, ganglia were dissociated by a series of triturations using fire-polished Pasteur pipettes. DRG cells were plated on polylysine-treated glass coverslips. Cells were plated at a density of 0.5 DRG per coverslip in 1 ml DMEM supplemented with 10% FBS, NGF, and 100 U/ml penicillin/streptomycin. All experimental procedures involving rats were conducted under a protocol approved by an Institutional Animal Care and Use Committee. Small variations in the concentrations of reagents, incubation times, etc. may occur and are expected to give similar results.
In most experiments, neurons were incubated in culture medium containing the FITC-labeled lectin BSI-B4 (IB4, […]) at 37° C. for 5 min before recording. The coverslip was washed with extracellular recording solution for 1 min before being placed in a recording chamber mounted on the stage of an inverted microscope equipped with fluorescence optics.
Electrophysiology: Electrophysiologic evaluation of neurons occurred within 4-48 h of plating. Whole cell patch-clamp recordings were obtained from dye-labeled DRG neurons. Recordings were obtained in an extracellular recording solution (pH 7.4, 295-320 mosM) consisting of (in mM) 140 NaCl, 3 KCl, 1 CaCl2, 1 MgCl2, 0.1 CdCl2, 10 HEPES, and 10 glucose. Patch-clamp electrodes were pulled from borosilicate glass and fire polished to 2-6 MOhm tip resistance. The internal pipette recording solution (pH 7.3, 290-300 mosM) consisted of (in mM) 140 CsCl, 10 NaCl, 1 EGTA, and 10 HEPES. Tetrodotoxin (TTX, 0.3 uM) was included in the extracellular solution to block TTX-sensitive sodium currents. Variations in the concentrations and types of reagents used for solutions may occur and are expected to give similar results.
Sodium currents were recorded from DRG neurons using standard electrophysiologic protocols. Neurons were typically voltage-clamped at −50 mV. Currents were recorded using a patch-clamp amplifier and digitized at 3-10 kHz for acquisition. Neuronal input resistance and membrane capacitance were determined from the amplitude and kinetics of the current response to a voltage pulse from a holding potential of −50 mV. Series resistance was compensated 75-95% for all recordings. Leak currents were cancelled online using a standard P/4 protocol. Depolarizing steps from −90, −70, or −50 mV to 0 mV were delivered every 5 or 30 sec during drug application to determine the effects of drugs on sodium currents. For all cell types, baseline responses were recorded for a minimum of 10 min to ensure that the kinetics of the response was stable. A wash out or recovery period usually followed the drug application period. […]

COC1=CC(=O)O[C@@H]1[C@@H](O)c1ccccc1Cl (relative stereo) [Losigamone, (5R*)-5-[(alphaS*)-o-Chloro-alpha-hydroxybenzyl]-4-methoxy-2(5H)-furanone]
post-test: reversal of bladder capacity reduction ([1]; 300 mg/kg dose, intraduodenal): statistically significant reversal of bladder capacity reduction
effect on bladder capacity (reversal of acetic acid-induced reduction) ([1]; intraduodenal): capable of partially reversing the reduction in bladder capacity caused by acetic acid in a dose-dependent fashion; also recorded: dose-dependent and statistically significant reversal
effect on bladder capacity (reversal of acetic acid-induced reduction) ([1]; intraduodenal, listed as losigamone): dose-dependent, statistically significant increases in bladder capacity

Nc1c(Br)cc(Br)cc1CNC1CCC(O)CC1 (centres unmarked) [Ambroxol]
post-test: reversal of bladder capacity reduction ([1]; 300 mg/kg dose, intraduodenal): statistically significant reversal of bladder capacity reduction
effect on bladder capacity (reversal of acetic acid-induced reduction) ([1]; intraduodenal): capable of partially reversing the reduction in bladder capacity caused by acetic acid in a dose-dependent fashion; also recorded: dose-dependent and statistically significant reversal
effect on bladder capacity (reversal of acetic acid-induced reduction) ([1]; intraduodenal, listed as ambroxol): dose-dependent, statistically significant increases in bladder capacity
concentration-response effect on TTX-R sodium current amplitude [2]: concentration-dependent reversible block; also recorded: reversible, concentration-dependent reduction in current amplitude
pIC50 ([2]; three bladder afferent neurons, 2-3 minute application, TTX 300 nM present, read-out: estimated IC50 for block of TTX-R sodium currents): ~4.82

NC(=O)N1c2ccccc2C=Cc2ccccc21 [Carbamazepine]
post-test: reversal of bladder capacity reduction ([1]; 100 mg/kg dose, intraduodenal): statistically significant reversal of bladder capacity reduction
effect on bladder capacity (reversal of acetic acid-induced reduction) ([1]; intraduodenal): capable of partially reversing the reduction in bladder capacity caused by acetic acid in a dose-dependent fashion; also recorded: dose-dependent and statistically significant reversal
effect on bladder capacity (reversal of acetic acid-induced reduction) ([1]; intraduodenal, listed as carbamazepine): dose-dependent, statistically significant increases in bladder capacity

Cc1cccc(C)c1OCC(C)N (centres unmarked) [Mexiletine, 1-(2,6-Dimethylphenoxy)-2-propanamine hydrochloride]
post-test: reversal of bladder capacity reduction ([1]; 30 mg/kg dose, intraduodenal): statistically significant reversal of bladder capacity reduction
effect on bladder capacity (reversal of acetic acid-induced reduction) ([1]; intraduodenal, hydrochloride): capable of partially reversing the reduction in bladder capacity caused by acetic acid in a dose-dependent fashion; also recorded: dose-dependent and statistically significant reversal
effect on bladder capacity (reversal of acetic acid-induced reduction) ([1]; intraduodenal, listed as mexilitine, hydrochloride): dose-dependent, statistically significant increases in bladder capacity

C[C@H](NCc1ccc(OCc2ccccc2F)cc1)C(N)=O [Ralfinamide, (+)-2(S)-[4-(2-Fluorobenzyloxy)benzylamino]propionamide]
post-test: reversal of bladder capacity reduction ([1]; 30 mg/kg dose, intraduodenal): statistically significant reversal of bladder capacity reduction
effect on bladder capacity (reversal of acetic acid-induced reduction) ([1]; intraduodenal): capable of partially reversing the reduction in bladder capacity caused by acetic acid in a dose-dependent fashion; also recorded: dose-dependent and statistically significant reversal
effect on bladder capacity (reversal of acetic acid-induced reduction) ([1]; intraduodenal, listed as ralfinamide): dose-dependent, statistically significant increases in bladder capacity
effect on inward TTX-R sodium current [2]: blocked the current
peak TTX-R sodium current ([2]; 100 μM, three neurons, holding potential −50 mV, pulse to 0 mV): 36±6 % of control

CN1CCN(c2ncc(-c3cc(Cl)cc(Cl)c3Cl)c(N)n2)CC1 [Sipatrigine, 4-Amino-2-(4-methylpiperazin-1-yl)-5-(2,3,5-trichlorophenyl)pyrimidine]
post-test: reversal of bladder capacity reduction ([1]; 30 mg/kg dose, intraduodenal): statistically significant reversal of bladder capacity reduction
post-test: reversal of bladder capacity reduction ([1]; 100 mg/kg dose, intraduodenal): statistically significant reversal of bladder capacity reduction
effect on bladder capacity (reversal of acetic acid-induced reduction) ([1]; intraduodenal): capable of partially reversing the reduction in bladder capacity caused by acetic acid in a dose-dependent fashion; also recorded: dose-dependent and statistically significant reversal
effect on bladder capacity (reversal of acetic acid-induced reduction) ([1]; intraduodenal, listed as sipatrigine): dose-dependent, statistically significant increases in bladder capacity
effect on inward TTX-R sodium current [2]: blocked the current
concentration-response effect on TTX-R sodium current amplitude [2]: concentration-dependent reduction in current amplitude

Cc1ccc(C(=O)C(C)CN2CCCCC2)cc1 (centres unmarked) [Tolperisone]
effect on bladder capacity (reversal of acetic acid-induced reduction) ([1]; intravenous): Neither Vinpocetine (FIG. 9) nor intravenous Tolperisone (FIG. 10) demonstrated statistically significant effects on bladder capacity; also recorded: not capable of significantly reversing the reduction in bladder capacity caused by acetic acid
effect on bladder capacity (reversal of acetic acid-induced reduction) ([1]; intravenous, listed as tolperisone): neither intraduodenal vinpocetine (n=6; 3-100 mg/kg) nor intravenous tolperisone (n=4; 3-10 mg/kg) demonstrated statistically significant effects on bladder capacity

CCOC(=O)C1=C[C@]2(CC)CCCN3CCc4c(n1c1ccccc41)[C@@H]32 [Vinpocetine]
effect on bladder capacity (reversal of acetic acid-induced reduction) ([1]; intraduodenal): not capable of significantly reversing the reduction in bladder capacity caused by acetic acid; also recorded: Neither Vinpocetine (FIG. 9) nor intravenous Tolperisone (FIG. 10) demonstrated statistically significant effects on bladder capacity
effect on bladder capacity (reversal of acetic acid-induced reduction) ([1]; intraduodenal, listed as vinpocetine): neither intraduodenal vinpocetine (n=6; 3-100 mg/kg) nor intravenous tolperisone (n=4; 3-10 mg/kg) demonstrated statistically significant effects on bladder capacity
